Tests used:
Type in all cases: physicochemical
[1] = Two-week solid-state stability at stressed conditions (high RH / high temperature), assessed by Powder-XRD; conditions: for Stability at high Temp (70° C.) / Stability at high RH (88%): two weeks, Powder-XRD; for Stability at high RH (88%): 88% RH; for physical stability at stressed conditions (high temperature and/or high humidity) relative to other salts: comparison with other salts
Method: X-ray Diffraction (XRD) Analysis: A Scintag X-2 theta/theta scanning diffractometer (Scintag Inc., Cupertino Calif.) was employed for the XRD data acquisition for this study. […] Major instrumental parameters are set as follows: 45 KV voltage, 40 mA current, divergent slit width of 2 mm, detector scatter slit width of 0.5 mm and receiving slit width of 0.3 mm. Each XRD pattern was scanned over the spectral range of 2-40° two-theta angle with a step scan algorithm with a step size of 0.03° two-theta angle/step. The raw XRD data, exported in ASCII format, is then converted to the binary format with Galactic's Grams software (Galactic Industries Corp., Salem N.H.) for data analysis, storage and output.

[2] = Dynamic moisture sorption gravimetry (DMSG); conditions: for Δ-Wt (%) DMSG: 0-90% RH: moisture sorption weight change; for moisture absorption (Δ-Wt(%) DMSG) relative to other salts: comparison with other salts
Method: Dynamic moisture sorption gravimetry (DMSG): DMSG isotherms were collected on the variable temperature controlled atmospheric microbalance, CAM. Approximately 10 mg samples were used in the balance, samples were run as received. The humidity was set at ambient conditions on the day analysis began. After the first scan with fast scan rate from ambient RH to 0% RH; the DMSG analysis followed with three more scans: 0% RH to 90% RH, 90% RH to 0% RH, 0% RH to 90% RH. The scan rate was 3% RH/step. The mass was measured every two minutes and an equilibrium window of 5 points within 0.001 mg. The RH was changed to the next value (+/−3% RH) when the mass of the sample was stable to within 1.0 μg. The Visual Basic program dmsgscn2.exe was used to control the data collection and export the information to an Excel spreadsheet.

[3] = Conversion of crystal form II to form I upon stirring in aqueous or hot-ethanol
Source text: See results in Table 2 below.

## N-{5-(1,4-diazepan-1-yl)-2-[(3-fluorophenyl)sulfonyl]phenyl}acetamide Hemi-succinate [Example 7]
[1]
  Stability at high Temp (70° C.): Unstable**
  Stability at high RH (88%): Unstable**
[2]
  Δ-Wt (%) DMSG: 0-90% RH: 5.0%

## CC(=O)Nc1cc(N2CCCNCC2)ccc1S(=O)(=O)c1cccc(F)c1.Cc1ccc(S(=O)(=O)O)cc1 [Example 8, N-{5-(1,4-diazepan-1-yl)-2-[(3-fluorophenyl)sulfonyl]phenyl}acetamide Tosylate]
[1]
  Stability at high Temp (70° C.): Stable
  Stability at high RH (88%): Stable
  physical stability at stressed conditions (high temperature and/or high humidity) relative to other salts: better physical stability
[2]
  moisture absorption (Δ-Wt(%) DMSG) relative to other salts: lower moisture absorption
  Δ-Wt (%) DMSG: 0-90% RH: 1.9%

## CC(=O)Nc1cc(N2CCCNCC2)ccc1S(=O)(=O)c1cccc(F)c1.O=C(O)/C=C/C(=O)O [Example 9, N-{5-(1,4-diazepan-1-yl)-2-[(3-fluorophenyl)sulfonyl]phenyl}acetamide Hemi-fumarate]
[1]
  Stability at high Temp (70° C.): Stable
  Stability at high RH (88%): Unstable**
[2]
  Δ-Wt (%) DMSG: 0-90% RH: 3.0%

## CC(=O)Nc1cc(N2CCCNCC2)ccc1S(=O)(=O)c1cccc(F)c1.Cl [Example 2, N-{5-(1,4-diazepan-1-yl)-2-[(3-fluorophenyl)sulfonyl]phenyl}acetamide Hydrochloride]
[1]
  Stability at high Temp (70° C.): Stable
  Stability at high RH (88%): Stable
  physical stability at stressed conditions (high temperature and/or high humidity) relative to other salts: better physical stability
[2]
  moisture absorption (Δ-Wt(%) DMSG) relative to other salts: lower moisture absorption
  Δ-Wt (%) DMSG: 0-90% RH: 0.8%

## CC(=O)Nc1cc(N2CCCNCC2)ccc1S(=O)(=O)c1cccc(F)c1 [Example 11, N-{5-(1,4-diazepan-1-yl)-2-[(3-fluorophenyl)sulfonyl]phenyl}acetamide Hemi-tartrate]
[1]
  Stability at high Temp (70° C.): Stable
  Stability at high RH (88%): Unstable**

## CC(=O)Nc1cc(N2CCCNCC2)ccc1S(=O)(=O)c1cccc(F)c1.CS(=O)(=O)O [Example 1, N-{5-(1,4-diazepan-1-yl)-2-[(3-fluorophenyl)sulfonyl]phenyl}acetamide Methanesulfonate]
[1]
  Stability at high Temp (70° C.): Stable
  Stability at high RH (88%): Deliquesced
[2]
  Δ-Wt (%) DMSG: 0-90% RH: Deliquesced

## CC(=O)Nc1cc(N2CCCNCC2)ccc1S(=O)(=O)c1cccc(F)c1.O=C(O)C(F)(F)F [Example 3, N-{5-(1,4-diazepan-1-yl)-2-[(3-fluorophenyl)sulfonyl]phenyl}acetamide Trifluoroacetate]
[1]
  Stability at high Temp (70° C.): Stable
  Stability at high RH (88%): Stable
  physical stability at stressed conditions (high temperature and/or high humidity) relative to other salts: better physical stability
[2]
  moisture absorption (Δ-Wt(%) DMSG) relative to other salts: lower moisture absorption
  Δ-Wt (%) DMSG: 0-90% RH: 0.8%

## CC(=O)Nc1cc(N2CCCNCC2)ccc1S(=O)(=O)c1cccc(F)c1.O=C(O)/C=C\C(=O)O [Example 4, N-{5-(1,4-diazepan-1-yl)-2-[(3-fluorophenyl)sulfonyl]phenyl}acetamide Maleate, Crystal Form I]
[1]
  Stability at high Temp (70° C.): Stable
  Stability at high RH (88%): Stable
[1]; listed as form I
  Stability at high Temp (70° C.): excellent physical stability
  Stability at high RH (88%): excellent physical stability
[3]
  thermodynamic preference between crystal forms: thermodynamically favored relative to form II
[2]
  Δ-Wt (%) DMSG: 0-90% RH: 0.7%

## CC(=O)Nc1cc(N2CCCNCC2)ccc1S(=O)(=O)c1cccc(F)c1.O=C(O)/C=C\C(=O)O [maleate, N-{5-(1,4-diazepan-1-yl)-2-[(3-fluorophenyl)sulfonyl]phenyl}acetamide maleate]
[1]
  physical stability at stressed conditions (high temperature and/or high humidity) relative to other salts: better physical stability
[2]
  moisture absorption (Δ-Wt(%) DMSG) relative to other salts: lower moisture absorption

## N-{5-(1,4-diazepan-1-yl)-2-[(3-fluorophenyl)sulfonyl]phenyl}acetamide Hemi-malate [Example 10]
[1]
  Stability at high Temp (70° C.): Unstable**
  Stability at high RH (88%): Stable
[2]
  Δ-Wt (%) DMSG: 0-90% RH: 1.5%

## CC(=O)Nc1cc(N2CCCNCC2)ccc1S(=O)(=O)c1cccc(F)c1.O=C(O)CC(O)(CC(=O)O)C(=O)O [Example 6, N-{5-(1,4-diazepan-1-yl)-2-[(3-fluorophenyl)sulfonyl]phenyl}acetamide Hemi-citrate]
[1]
  Stability at high Temp (70° C.): Stable
  Stability at high RH (88%): Unstable***
[2]
  Δ-Wt (%) DMSG: 0-90% RH: 2.5%

## CC(=O)Nc1cc(N2CCCNCC2)ccc1S(=O)(=O)c1cccc(F)c1.O=C(O)/C=C\C(=O)O [Example 5 (Form II), N-{5-(1,4-diazepan-1-yl)-2-[(3-fluorophenyl)sulfonyl]phenyl}acetamide maleate]
[1]; listed as form II, maleate
  Stability at high Temp (70° C.): excellent physical stability
  Stability at high RH (88%): excellent physical stability
[1]; maleate
  Stability at high Temp (70° C.): Stable
  Stability at high RH (88%): Stable
[2]; maleate
  Δ-Wt (%) DMSG: 0-90% RH: 0.3%

Source: patent US20040029865A1, “Bis-arylsulfones” (priority 2002, published 2004)
